The supplement of paper PMC10883282
Counter-ions that a name gives are not always drawn. ± gives the standard deviation of the averaged measurements.

System: G401
Assay: relative viability vs DMSO control (72 h) (fraction); higher = more viable cells
Procedure, shortened: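 Relative viability is percent growth read by ATPLite and averaged over up to triplicate wells. Sarcoma cells were seeded in 384-well plates to reach 80–90% confluence and given 2.5 µl of serially diluted compound after 24 h, from source plates of 10 mM to 0.0002 mM. Incubation lasted 72 h at 37 °C, 5% CO2, with 0.1% DMSO vehicle and a 5 µM positive control, and the data were rescaled so 1 equals full and 0 equals none.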

| SMILES | relative viability (0.00017 µM) | relative viability (0.00051 µM) | relative viability (0.00152 µM) | relative viability (0.00457 µM) | relative viability (0.01372 µM) | relative viability (0.04115 µM) | relative viability (0.1235 µM) | relative viability (0.3704 µM) | relative viability (1.111 µM) | relative viability (3.333 µM) | relative viability (10 µM) | relative viability (2 pM) | relative viability (5 pM) | relative viability (15 pM) | relative viability (50 pM) | relative viability (0.00014 µM) | relative viability (0.00041 µM) | relative viability (0.0012 µM) | relative viability (0.0037 µM) | relative viability (0.011 µM) | relative viability (200 fM) | relative viability (600 fM) |
| --- | --- | --- | --- | --- | --- | --- | --- | --- | --- | --- | --- | --- | --- | --- | --- | --- | --- | --- | --- | --- | --- | --- |
| CCCS(=O)(=O)Nc1ccc(F)c(C(=O)c2c[nH]c3ncc(-c4ccc(Cl)cc4)cc23)c1F [Vemurafenib] | 1.01 ± 0.0022 | 1.02 ± 0.016 | 1.01 ± 0.017 | 1.004 ± 0.01 | 1.01 ± 0.024 | 1 ± 0.03 | 1.02 ± 0.0078 | 1.031 ± 0.0097 | 1.01 ± 0.011 | 1.01 ± 0.021 | 0.753 ± 0.023 | – | – | – | – | – | – | – | – | – | – | – |
| COCc1c(-c2cc3cc(C)cc(OC)c3s2)c2c(N)ncnn2c1CN1CCNC(=O)C1 [Rogaratinib] | 1.05 ± 0.015 | 1.06 ± 0.037 | 1.02 ± 0.031 | 1.01 ± 0.011 | 1.018 ± 0.0054 | 0.967 ± 0.038 | 0.8878 ± 0.0073 | 0.68 ± 0.015 | 0.592 ± 0.024 | 0.532 ± 0.043 | 0.375 ± 0.0068 | – | – | – | – | – | – | – | – | – | – | – |
| C=CC(=O)N1CCC([C@@H]2CCNc3c(C(N)=O)c(-c4ccc(Oc5ccccc5)cc4)nn32)CC1 [Zanubrutinib] | 0.964 ± 0.022 | 0.96 ± 0.023 | 0.99 ± 0.023 | 0.99 ± 0.024 | 0.946 ± 0.044 | 0.957 ± 0.031 | 0.957 ± 0.026 | 0.9805 ± 0.0066 | 0.932 ± 0.035 | 0.872 ± 0.029 | 0.801 ± 0.039 | – | – | – | – | – | – | – | – | – | – | – |
| COc1cccc2c1C(=O)c1c(O)c3c(c(O)c1C2=O)C[C@@](O)(C(=O)CO)C[C@@H]3O[C@H]1C[C@H](N)[C@H](O)[C@H](C)O1 [Doxorubicin Hydrochloride] | 1.03 ± 0.011 | 1.02 ± 0.018 | 1 ± 0.041 | 0.937 ± 0.021 | 0.8493 ± 0.0066 | 0.681 ± 0.019 | 0.476 ± 0.041 | 0.079 ± 0.017 | 0.0407 ± 0.0027 | 0.096 ± 0.0082 | 0.101 ± 0.0054 | – | – | – | – | – | – | – | – | – | – | – |
| CC(C)NC(=O)C1CCC(n2c(NC(=O)c3ccc(F)cc3)nc3ccc(CN4CCC(C(C)(C)O)CC4)cc32)CC1 (stereo not drawn) [Belizatinib] | 1.01 ± 0.043 | 0.997 ± 0.054 | 1.01 ± 0.061 | 1 ± 0.064 | 1.02 ± 0.022 | 1.01 ± 0.015 | 0.974 ± 0.038 | 0.877 ± 0.026 | 0.606 ± 0.015 | 0.305 ± 0.027 | 0.154 ± 0.02 | – | – | – | – | – | – | – | – | – | – | – |
| COc1cc2/c(=N/c3ccc(Br)cc3F)nc[nH]c2cc1OCC1CCN(C)CC1 [Vandetanib] | 0.983 ± 0.019 | 0.98623 ± 0.00074 | 0.989 ± 0.019 | 0.99 ± 0.028 | 0.993 ± 0.025 | 0.968 ± 0.025 | 0.971 ± 0.015 | 0.988 ± 0.033 | 0.87 ± 0.013 | 0.736 ± 0.0092 | 0.0218 ± 0.0004 | – | – | – | – | – | – | – | – | – | – | – |
| C[C@@H]1CCN(C(=O)CC#N)C[C@@H]1N(C)c1ncnc2[nH]ccc12 [Tofacitinib] | 1.07 ± 0.026 | 1.044 ± 0.0027 | 1.06 ± 0.027 | 1.02 ± 0.015 | 1.05 ± 0.012 | 1.05 ± 0.026 | 1.03 ± 0.035 | 1.07 ± 0.048 | 1.04 ± 0.045 | 1.06 ± 0.056 | 1.06 ± 0.037 | – | – | – | – | – | – | – | – | – | – | – |
| Cn1cnc2c(F)c(Nc3ccc(Br)cc3F)c(C(=O)NOCCO)cc21 [Binimetinib] | 1.01 ± 0.025 | 1.05 ± 0.019 | 1.03 ± 0.033 | 1.01 ± 0.011 | 0.983 ± 0.023 | 0.904 ± 0.0051 | 0.886 ± 0.029 | 0.859 ± 0.021 | 0.782 ± 0.02 | 0.716 ± 0.046 | 0.584 ± 0.038 | – | – | – | – | – | – | – | – | – | – | – |
| Cc1nc(-c2cn3c(n2)-c2ccc(-c4cnn(C(C)(C)C(N)=O)c4)cc2OCC3)n(C(C)C)n1 [Taselisib] | 0.995 ± 0.022 | 0.968 ± 0.045 | 0.969 ± 0.032 | 0.923 ± 0.011 | 0.866 ± 0.019 | 0.7976 ± 0.0064 | 0.68 ± 0.03 | 0.592 ± 0.027 | 0.499 ± 0.021 | 0.439 ± 0.019 | 0.347 ± 0.018 | – | – | – | – | – | – | – | – | – | – | – |
| Nc1cc(C(F)(F)F)c(-c2cc(N3CCOCC3)nc(N3CCOCC3)n2)cn1 [Buparlisib] | 0.957 ± 0.011 | 0.983 ± 0.013 | 0.932 ± 0.024 | 0.966 ± 0.022 | 1 ± 0.027 | 0.928 ± 0.041 | 0.86 ± 0.027 | 0.767 ± 0.037 | 0.594 ± 0.014 | 0.304 ± 0.005 | 0.237 ± 0.0068 | – | – | – | – | – | – | – | – | – | – | – |
| Cc1cnc(Nc2ccc(OCCN3CCCC3)cc2)nc1Nc1cccc(S(=O)(=O)NC(C)(C)C)c1 [Fedratinib] | 1.029 ± 0.0083 | 1.05 ± 0.029 | 1.038 ± 0.0091 | 1.03 ± 0.019 | 1.04 ± 0.011 | 0.997 ± 0.024 | 0.919 ± 0.015 | 0.8157 ± 0.0074 | 0.499 ± 0.0075 | 0.204 ± 0.012 | 0.0136 ± 0.00091 | – | – | – | – | – | – | – | – | – | – | – |
| COc1cc2c(Oc3ccc4[nH]c(C)cc4c3F)ncnc2cc1OCCCN1CCCC1 [Cediranib] | 0.97 ± 0.055 | 1.03 ± 0.015 | 0.993 ± 0.031 | 0.981 ± 0.059 | 0.995 ± 0.029 | 1.01 ± 0.024 | 0.95 ± 0.024 | 0.828 ± 0.013 | 0.47 ± 0.019 | 0.273 ± 0.02 | 0.00627 ± 0.0033 | – | – | – | – | – | – | – | – | – | – | – |
| CC(=O)Nc1cccc(-n2c(=O)n(C3CC3)c(=O)c3c(Nc4ccc(I)cc4F)n(C)c(=O)c(C)c32)c1 [Trametinib] | 1.01 ± 0.054 | 1 ± 0.019 | 0.952 ± 0.018 | 0.906 ± 0.029 | 0.845 ± 0.032 | 0.765 ± 0.017 | 0.627 ± 0.011 | 0.38 ± 0.027 | 0.184 ± 0.0096 | 0.144 ± 0.014 | 0.12 ± 0.012 | – | – | – | – | – | – | – | – | – | – | – |
| CC(C)N1CCN(Cc2cnc(-c3cc(-c4cccc5[nH]ccc45)cc4[nH]ncc34)o2)CC1 [Nemiralisib] | 0.962 ± 0.043 | 0.933 ± 0.035 | 0.883 ± 0.015 | 0.921 ± 0.033 | 0.904 ± 0.035 | 0.911 ± 0.048 | 0.916 ± 0.013 | 0.877 ± 0.01 | 0.833 ± 0.021 | 0.735 ± 0.026 | 0.609 ± 0.012 | – | – | – | – | – | – | – | – | – | – | – |
| Cc1cc(Nc2ncnc3ccc(NC4=NC(C)(C)CO4)cc23)ccc1Oc1ccn2ncnc2c1 [Tucatinib] | 1.03 ± 0.042 | 1.04 ± 0.039 | 1.02 ± 0.04 | 1.02 ± 0.037 | 1.01 ± 0.037 | 0.985 ± 0.036 | 1.02 ± 0.026 | 1.01 ± 0.026 | 1.01 ± 0.035 | 0.984 ± 0.025 | 0.985 ± 0.031 | – | – | – | – | – | – | – | – | – | – | – |
| COc1cc2c(cc1O)CCN[C@]21CS[C@@H]2c3c(OC(C)=O)c(C)c4c(c3[C@H](COC1=O)N1[C@@H]2[C@H]2c3c(cc(C)c(OC)c3O)C[C@@H]([C@@H]1O)N2C)OCO4 [Trabectedin] | – | – | – | – | – | – | – | – | – | – | – | 1.03 ± 0.017 | 1.02 ± 0.025 | 0.993 ± 0.018 | 0.991 ± 0.014 | 0.832 ± 0.043 | 0.516 ± 0.024 | 0.0964 ± 0.077 | 0.126 ± 0.016 | 0.0862 ± 0.0056 | 1.05 ± 0.032 | 1.03 ± 0.04 |
| C[C@@H]1COCCN1c1cc(-c2ccnn2C)c2ccnc(-c3ccn[nH]3)c2n1 | 0.996 ± 0.018 | 0.9815 ± 0.0068 | 1 ± 0.011 | 1.01 ± 0.023 | 0.997 ± 0.02 | 0.915 ± 0.026 | 0.803 ± 0.043 | 0.675 ± 0.0044 | 0.598 ± 0.0066 | 0.517 ± 0.012 | 0.486 ± 0.012 | – | – | – | – | – | – | – | – | – | – | – |
| Cc1cc(C)c(/C=C2\C(=O)Nc3ccccc32)[nH]1 [Semaxanib] | 0.957 ± 0.044 | 0.981 ± 0.031 | 0.957 ± 0.043 | 0.976 ± 0.037 | 0.964 ± 0.036 | 0.948 ± 0.019 | 0.9755 ± 0.0068 | 0.9895 ± 0.0091 | 0.932 ± 0.046 | 0.904 ± 0.05 | 0.813 ± 0.067 | – | – | – | – | – | – | – | – | – | – | – |
